In patent US4861778A, “2,3-dihydrophthalazine-1,4-diones” (priority 1986, dated 1989):
Where two headings read alike, the source gives them in different places.

Key:
[1] = tested on: serum cholesterol and serum triglyceride; assay: Hypolipidemic activity of 2,3-dihydrophthalazine-1,4-diones in normal male mice (Example 11, Table II); type: in vivo, CF1 male mice; details: Mus musculus, ip, CF1 male mice, 20 mg/kg/day intraperitoneally
Protocol: Hypolipidemic Activity of 2,3-Dihydrophthalazine-1,4-Diones in Normal Male Mice
Each of the prepared compounds was administered intraperitoneally, in a dosage of 20 milligrams per kilogram of body weight per day, to a group of six CF1 male mice, each weighing approximately 25 grams, for 16 days. On Days 9 and 16 blood was obtained from each of the tested mice by tail vein bleeding. The blood serum so obtained was separated by centrifugation for three minutes. […] Serum triglyceride levels were obtained on Day 16 by use of the Bio-Dynamics/bm Triglyceride Kit.
In addition to the above-described treated mice, an untreated control group of six mice were similarly tested on Days 9 and 16 to determine their serum cholesterol and serum triglyceride blood levels.

[2] = tested on: serum cholesterol and serum triglyceride; assay: Hypolipidemic effect of Compound No. 1 in normal CF1 male mice, dose response (Example 12, Table III); type: in vivo
Protocol: The hypolipidemic effects of a preferred compound within the scope of the present invention, 2,3-dihydrophthalazine-1,4-dione (Compound No. 1), was tested in accordance with the procedure set forth in Example 11. However, in addition to testing normal CF1 male mice at 20 mg/kg/d ip, sets of six of these mice were treated with dosages of 10, 40 and 60 mg/kg/d. A set of six mice were again treated with a 1 percent aqueous solution of CMC, the carrier for the active agent, as a control.
(§1) In Table III the results are reported as percent of serum cholesterol and serum triglyceride based on the concentration of these materials found in the control, the rats treated with the 1 percent aqueous solution of CMC.

[3] = tested on: serum cholesterol and serum triglyceride; assay: Hypolipidemic effect of Compound No. 1 in normal Sprague-Dawley male rats (Example 12, Table III); type: in vivo; details: 10 mg/kg/day orally
Protocol: In addition, rats were treated with Compound No. 1. The rats used in the test were normal Sprague-Dawley male rats, each weighting approximately 350 grams. The rats, tested in groups of six, were orally administered 10 mg/kg/d of Compound 1 in an aqueous solution of 1 percent CMC. The treatment of 10 milligrams per kilogram of body weight per day continued for 14 days. On Days 7 and 14 blood was obtained from each of the rats by tail vein bleeding. The blood obtained was separated centrifugation for three minutes. Serum cholesterol and serum triglyceride blood levels were determined in accordance with the procedure of Example 1.
as §1

[4] = tested on: plasma lipoprotein fractions; assay: Determination of plasma lipoprotein fractions in rats (Example 13, Table IV); type: in vivo, Sprague-Dawley male rats; details: 10 mg/kg/d orally
Text: Determination of Plasma Lipoprotein Fractions in Rats
Sets of six normal Sprague-Dawley male rats, each weighing approximately 350 grams, were orally treated with 10 milligrams per kilogram of body weight per day of 2,3-dihydrophthalazine-1,4-dione (Comp. No. 1) by intubation needle. In addition, a set of six Sprague-Dawley male rats of approximately the same weight were similarly treated except that the administered drug was the inert carrier, the 1 percent aqueous solution of CMC.
Blood was collected from all the rats participating in the test from the abdominal vein and lipoprotein fractions were obtained by the method of Hatch and Lees (Adv. Lipid Res., Vol. 6, 1 [1968]) and Havel et al. (J. Clin. Invest., Vol. 34, 1345 [1955]). Each of the fractions were analyzed for cholesterol in accordance with the Ness et al. test, for triglyceride level (Bio-Dynamic/bmc Triglyceride Kit), neutral lipids, in accordance with the test of Bragdon (J. Biol. Chem., Vol. 190, 513 [1951]), phospholipids, in accordance with the Stewart and Hendry procedure (Biochem. J., Vol. 29, 1683 [1935]) and protein levels, in accordance with the procedure of Lowry et al. (J. Biol. Chem., Vol. 193, 265 [1951]).

[5] = tested on: serum cholesterol and serum triglycerides; assay: Effect of Compound 1 on hyperlipidemic mice (Example 14); type: in vivo, CF1 male mice; details: diet-induced hyperlipidemic CF1 mice, 20 mg/kg daily, 12 days
Protocol: Effect of Compound 1 on Hyperlipidemic Mice
A group of CF1 male mice were fed a diet resulting in induced hyperlipidemia.
These hyperlipidemic mice were treated for 12 days with Compound 1 (2,3-dihydrophthalazine-1,4-dione) at a daily dosage of 20 mg/kg. At the conclusion of this treatment regime the average serum cholesterol level of the hyperlipidemic mice was lowered to 221 mg percent, a 41 percent reduction.

O=c1[nH][nH]c(=O)c2ccccc12 [Compound 1, 2,3-Dihydrophthalazine-1,4-Dione]
response vs control in vivo at 20 mg/kg/day ([1]; 216 h, Day 9, read-out: Serum Cholesterol Day 9, percent control ± standard deviation): 53 ± 4%
response vs control in vivo at 20 mg/kg/day ([1]; 384 h, Day 16, read-out: Serum Cholesterol Day 16, percent control ± standard deviation): 49 ± 5%
response vs control in vivo at 20 mg/kg/day ([1]; 384 h, Day 16, read-out: Serum Triglyceride Day 16, percent control ± standard deviation): 57 ± 4%
Cholesterol Day 9, % control ± standard deviation ([2]; 10 mg/kg/day ip): 88 ± 5 % CONTROL
Cholesterol Day 16, % control ± standard deviation ([2]; 10 mg/kg/day ip): 76 ± 7 % CONTROL
Triglyceride Day 16, % control ± standard deviation ([2]; 10 mg/kg/day ip): 67 ± 5 % CONTROL
Cholesterol Day 9, % control ± standard deviation ([2]; 20 mg/kg/day ip): 53 ± 4 % CONTROL
Cholesterol Day 16, % control ± standard deviation ([2]; 20 mg/kg/day ip): 49 ± 8 % CONTROL
Triglyceride Day 16, % control ± standard deviation ([2]; 20 mg/kg/day ip): 57 ± 4 % CONTROL
Cholesterol Day 9, % control ± standard deviation ([2]; 40 mg/kg/day ip): 71 ± 7 % CONTROL
Cholesterol Day 16, % control ± standard deviation ([2]; 40 mg/kg/day ip): 60 ± 6 % CONTROL
Triglyceride Day 16, % control ± standard deviation ([2]; 40 mg/kg/day ip): 44 ± 3 % CONTROL
Cholesterol Day 9, % control ± standard deviation ([2]; 60 mg/kg/day ip): 76 ± 8 % CONTROL
Cholesterol Day 16, % control ± standard deviation ([2]; 60 mg/kg/day ip): 55 ± 5 % CONTROL
Triglyceride Day 16, % control ± standard deviation ([2]; 60 mg/kg/day ip): 49 ± 5 % CONTROL
Cholesterol Day 7, % control ± standard deviation ([3]; Day 7): 75 ± 5 % CONTROL
Triglyceride Day 7, % control ± standard deviation ([3]; Day 7): 66 ± 6 % CONTROL
Cholesterol Day 14, % control ± standard deviation ([3]; Day 14): 68 ± 8 % CONTROL
Triglyceride Day 14, % control ± standard deviation ([3]; Day 14): 64 ± 5 % CONTROL
HDL cholesterol, percent control ± standard deviation ([4]; HDL, column 1): 107 ± 3 PERCENT CONTROL
HDL triglyceride, percent control ± standard deviation ([4]; HDL, column 2): 42 ± 4 PERCENT CONTROL
HDL neutral lipids, percent control ± standard deviation ([4]; HDL, column 3): 86 ± 3 PERCENT CONTROL
HDL phospholipids, percent control ± standard deviation ([4]; HDL, column 4): 42 ± 6 PERCENT CONTROL
HDL protein, percent control ± standard deviation ([4]; HDL, column 5): 93 ± 7 PERCENT CONTROL
LDL cholesterol, percent control ± standard deviation ([4]; LDL, column 1): 35 ± 6 PERCENT CONTROL
LDL triglyceride, percent control ± standard deviation ([4]; LDL, column 2): 94 ± 7 PERCENT CONTROL
LDL neutral lipids, percent control ± standard deviation ([4]; LDL, column 3): 88 ± 6 PERCENT CONTROL
LDL phospholipids, percent control ± standard deviation ([4]; LDL, column 4): 125 ± 7 PERCENT CONTROL
LDL protein, percent control ± standard deviation ([4]; LDL, column 5): 92 ± 8 PERCENT CONTROL
VLDL cholesterol, percent control ± standard deviation ([4]; VLDL, column 1): 30 ± 5 PERCENT CONTROL
VLDL triglyceride, percent control ± standard deviation ([4]; VLDL, column 2): 134 ± 10 PERCENT CONTROL
VLDL neutral lipids, percent control ± standard deviation ([4]; VLDL, column 3): 81 ± 3 PERCENT CONTROL
VLDL phospholipids, percent control ± standard deviation ([4]; VLDL, column 4): 91 ± 6 PERCENT CONTROL
VLDL protein, percent control ± standard deviation ([4]; VLDL, column 5): 103 ± 7 PERCENT CONTROL
Chylomicrons cholesterol, percent control ± standard deviation ([4]; chylomicrons, column 1): 82 ± 6 PERCENT CONTROL
Chylomicrons triglyceride, percent control ± standard deviation ([4]; chylomicrons, column 2): 85 ± 7 PERCENT CONTROL
Chylomicrons neutral lipids, percent control ± standard deviation ([4]; chylomicrons, column 3): 84 ± 8 PERCENT CONTROL
Chylomicrons phospholipids, percent control ± standard deviation ([4]; chylomicrons, column 4): 92 ± 7 PERCENT CONTROL
Chylomicrons protein, percent control ± standard deviation ([4]; chylomicrons, column 5): 102 ± 6 PERCENT CONTROL
reduction of serum cholesterol level [5]: 41%
reduction of serum triglycerides level [5]: 56%
average serum triglycerides level after treatment ([5]; initial 367 mg/dl): 161 mg/dL
average serum cholesterol level after treatment ([5]; initial 375 mg percent): 221 mg percent
